In article PMC11722313 (bioRxiv, 2025):

Experiments:
[1] = SEC-SAXS of IDE constructs; type: physicochemical, human; details: Guinier method
[2] = Size-exclusion chromatography elution of IDE constructs; type: physicochemical, human; details: S200 SEC column
[3] = target: IDE R668A (human insulin degrading enzyme, cysteine-free) (Homo sapiens, UniProt P14735, C110L/C171S/C178A/C257V/C414L/C573N/C590S/C789S/C812A/C819A/C904S/C966N/C974A/R668A); experiment: Competition assay: inhibition of MCA-[…]; type: biochemical; details: 5 nM IDE R668A, 5 μM MCA-RPPGFSAFK(Dnp), pH 7.5, 37° C; average of three technical replicates
IDE R668A (human insulin degrading enzyme, cysteine-free), sequence (P14735 42-1019 C110L/C171S/C178A/C257V/C414L/C573N/C590S/R668A/C789S/C812A/C819A/C904S/C966N/C974A limits assumed): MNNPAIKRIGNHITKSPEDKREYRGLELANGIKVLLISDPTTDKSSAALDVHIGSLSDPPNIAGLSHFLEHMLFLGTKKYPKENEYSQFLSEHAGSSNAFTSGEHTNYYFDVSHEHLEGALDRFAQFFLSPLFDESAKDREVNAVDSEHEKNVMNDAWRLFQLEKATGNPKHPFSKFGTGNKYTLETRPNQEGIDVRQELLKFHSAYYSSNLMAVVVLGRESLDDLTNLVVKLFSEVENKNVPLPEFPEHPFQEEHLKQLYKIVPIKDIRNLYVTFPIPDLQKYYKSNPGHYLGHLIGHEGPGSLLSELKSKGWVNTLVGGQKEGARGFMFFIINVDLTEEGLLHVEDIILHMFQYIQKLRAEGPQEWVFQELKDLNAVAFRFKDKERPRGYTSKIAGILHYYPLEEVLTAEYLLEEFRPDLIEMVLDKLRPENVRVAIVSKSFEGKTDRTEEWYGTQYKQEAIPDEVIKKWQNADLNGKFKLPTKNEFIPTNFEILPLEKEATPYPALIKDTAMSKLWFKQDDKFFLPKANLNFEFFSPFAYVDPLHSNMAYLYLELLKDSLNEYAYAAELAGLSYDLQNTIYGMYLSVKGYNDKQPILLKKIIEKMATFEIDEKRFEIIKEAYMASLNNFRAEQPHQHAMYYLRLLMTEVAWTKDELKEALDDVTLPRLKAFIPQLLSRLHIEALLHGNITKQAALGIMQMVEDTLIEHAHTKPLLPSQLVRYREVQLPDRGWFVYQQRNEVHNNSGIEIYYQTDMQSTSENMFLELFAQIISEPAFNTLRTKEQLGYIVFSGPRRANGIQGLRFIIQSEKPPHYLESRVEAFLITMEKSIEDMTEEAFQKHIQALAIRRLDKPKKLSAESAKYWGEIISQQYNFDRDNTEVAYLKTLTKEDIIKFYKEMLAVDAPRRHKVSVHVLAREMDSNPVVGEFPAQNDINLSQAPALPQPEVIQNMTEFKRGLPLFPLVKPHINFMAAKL

IDE [4] = details: HDX-MS; ref Zhang et al, 2018; cited from earlier work
IDE [5] = details: time-resolved SAXS; ref Zhang et al., 2018; cited from earlier work
IDE [6] = experiment: Cryo-EM of IDE in the presence of sub-saturating insulin; parameters: species or system human
[7] = IDE:insulin 2:1, compared with previously reported O and pO states

For “R668A: IDE carrying a R668 to alanine (R668A) point mutation”, the “Rg (Guinier)” value [1] was 54.7 +/− 0.4 Å and the “SEC elution relative to WT IDE” value [2] was “eluted slightly earlier than WT IDE”.
With “Aβ(1–40): amyloid-β 1–40, an unstructured substrate of IDE” the “competition of MCA-RPPGFSAFK(Dnp) degradation, IDE R668A (in words)” value [3] was “did not exhibit a dose-dependent response to the presence of Aβ and the data could not be fit to any kinetic equation”.
In the case of `O=C(C[C@@H](Cc1ccc2ccccc2c1)n1cc(CNC(=O)c2ccc(F)cc2)nn1)NO` [BDM-44768], the “deuterium exchange of the R668-containing peptide vs apo-IDE” value (IDE [4]) is listed as “the peptide containing R668 shows reduced deuterium exchange relative to apo-IDE”.
For “insulin: IDE substrate; purchased from MP Biomedicals (#0219390010) for enzymatic assays, SIGMA (91077C) for cryo-EM”, the “time constant tau for the insulin induced open to closed transition” value (IDE [5]) is given as ~ 100 milliseconds, the “closing of pO and O subunits in presence of insulin (D1-D4 COM distance)” value (IDE [6]; [7]) is given as 3–5 Å and the “reduction of D1-D2-D3-D4 COM dihedral in presence of insulin” value (IDE [6]; [7]) is given as 5–10 °. The “dominant IDE state with sub-saturating insulin” value (IDE [6]; IDE:insulin molar ratio 2:1, cryo-EM) was “the pC/pC was still found to be dominant”.
